The text below walks through data of patent US8962659B2, “Phenoxyethyl piperidine compounds” (Eli Lilly and Company, priority 2012, dated 2015).

The target in experiment [1] is human EP3 (isoform VI) (Homo sapiens (Human), UniProt P43115). The experiment in a line: In vitro binding to human EP3 ([3H]-PGE2 displacement, membranes). The settings on record: [3H]-PGE2, HEK293 membranes; read-out: hEP3, Ki. The method, then:
(§1) hEP1 and hEP4 membranes are prepared from recombinant HEK293 cells stably expressing the human EP1 (Genbank accession number AY275470) or EP4 (Genbank accession number AY429109) receptors. hEP2 and hEP3 membranes are prepared from HEK293 cells transiently transfected with EP2 (Genbank accession number AY275471) or EP3 (isoform VI: Genbank accession number AY429108) receptor plasmids. Frozen cell pellets are homogenized in homogenization buffer using a Teflon/glass homogenizer. Membrane protein is aliquoted and quick frozen on dry ice prior to storage at -80° C. Homogenization buffer contained 10 mM Tris-HCl, pH 7.4, 250 mM sucrose, 1 mM EDTA, 0.3 mM indomethacin and plus CompleteTM, with EDTA, obtained from Roche Molecular Biochemicals (Catalog Number 1 697 498). Kd values for [3H]-PGE2 binding to each receptor are determined by saturation binding studies or homologous competition. […] Nonspecific binding is calculated by comparing binding in the presence and absence of 2 μM of PGE2. The membranes are harvested by filtration (TomTek harvester), washed 4 times with cold buffer (10 mM MES pH 6.0 with KOH, 10 mM MgCl2), dried in a 60° C. oven, and the radioactivity is quantified as counts per minute (CPM) using a TopCount detector. Percent specific binding is calculated as the percent of the binding in the absence of any inhibitor, corrected for binding in the presence of 2 μM of PGE2.

Experiment [2] concerns the target human EP1 (Homo sapiens (Human), UniProt P34995). The experiment in a line: In vitro binding to human EP1 ([3H]-PGE2 displacement, membranes). The settings on record: [3H]-PGE2, HEK293 membranes; read-out: hEP1, Ki. The method, then: as §1
For experiment [3], the target named is human EP2 (Homo sapiens (Human), UniProt P43116). Put plainly: In vitro binding to human EP2 ([3H]-PGE2 displacement, membranes). Particulars: [3H]-PGE2, HEK293 membranes; n = 3; read-out: hEP2, Ki. On the procedure:
as §1

In experiment [4] the target is rat EP4 (Rattus norvegicus (Rat), UniProt P43114). The experiment in a line: In vitro rat EP4 functional antagonist activity (PGE2-stimulated cAMP, HTRF, HEK293). Type of experiment: cell-based. The settings on record: inhibition of PGE2 (EC80)-stimulated cAMP, read-out: IC50 measured at rat EP4. A general note: In TR-FRET formats the signal depends on donor and acceptor labels being close together.
Chain of rat EP4 (P43114 whole entry): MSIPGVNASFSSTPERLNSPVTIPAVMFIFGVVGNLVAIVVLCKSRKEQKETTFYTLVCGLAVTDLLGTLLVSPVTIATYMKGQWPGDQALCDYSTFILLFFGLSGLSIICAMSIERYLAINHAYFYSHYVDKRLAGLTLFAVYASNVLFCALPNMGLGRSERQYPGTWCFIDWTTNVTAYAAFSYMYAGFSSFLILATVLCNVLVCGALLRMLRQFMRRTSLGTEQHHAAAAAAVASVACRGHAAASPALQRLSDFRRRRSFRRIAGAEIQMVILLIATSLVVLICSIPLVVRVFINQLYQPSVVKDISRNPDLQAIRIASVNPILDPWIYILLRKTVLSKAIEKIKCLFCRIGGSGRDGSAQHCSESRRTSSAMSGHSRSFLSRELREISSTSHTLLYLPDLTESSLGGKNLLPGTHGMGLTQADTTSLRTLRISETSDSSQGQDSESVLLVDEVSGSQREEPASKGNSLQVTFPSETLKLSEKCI
Experimental: Rat EP4 cDNA (Genebank Accession# NM—03276) is cloned into pcDNA 3.1 vector and subsequently transfected in HEK293 cells for receptor expression. Rat EP4 stable clone is scaled up and then frozen down as cell bank for future compounds screening. To test EP4 antagonist compounds in rEP4 cells, thaw the frozen cells and then resuspend cells in cAMP assay buffer. […] The cells are plated into 96-well half area flat-bottom polystyrene black plates (Costar 3694). […] Then diluted compounds are added into cAMP assay buffer which contains PGE2 (Cayman 14010, in a concentration predetermined to produce an EC80) at ratio of DMSO/buffer at 1/100. The cells are treated with compounds in the presence of PGE2 (EC80 concentration) for 30 minutes at room temperature. The cAMP levels generated from the cells are quantified by a cAMP HTRF assay kit (Cisbio 62AM4PEC). The plates are read on an EnVision plate reader using HTRF optimized protocol (PerkinElmer). IC50s are calculated using Graphpad Prism (v. 4) nonlinear regression, sigmoidal dose response curve fitting.

The structures appear in SMILES notation. Where a name gives a salt, the structure may show the parent alone.

Chain of human EP3 (isoform VI) (P43115 other isoform, or with tags, fused parts or gaps isoform P43115-4): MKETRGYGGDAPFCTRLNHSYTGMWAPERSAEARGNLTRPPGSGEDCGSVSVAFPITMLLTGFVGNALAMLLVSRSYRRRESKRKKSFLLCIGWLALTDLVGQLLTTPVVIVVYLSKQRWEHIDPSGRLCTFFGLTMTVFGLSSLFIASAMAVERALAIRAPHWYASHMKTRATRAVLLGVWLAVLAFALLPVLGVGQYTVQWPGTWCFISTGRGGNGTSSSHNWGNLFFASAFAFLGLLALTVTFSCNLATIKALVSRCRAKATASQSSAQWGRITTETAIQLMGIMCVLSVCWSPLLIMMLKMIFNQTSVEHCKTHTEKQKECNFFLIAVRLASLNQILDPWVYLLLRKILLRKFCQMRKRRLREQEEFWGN
Chain of human EP2 (P43116 whole entry): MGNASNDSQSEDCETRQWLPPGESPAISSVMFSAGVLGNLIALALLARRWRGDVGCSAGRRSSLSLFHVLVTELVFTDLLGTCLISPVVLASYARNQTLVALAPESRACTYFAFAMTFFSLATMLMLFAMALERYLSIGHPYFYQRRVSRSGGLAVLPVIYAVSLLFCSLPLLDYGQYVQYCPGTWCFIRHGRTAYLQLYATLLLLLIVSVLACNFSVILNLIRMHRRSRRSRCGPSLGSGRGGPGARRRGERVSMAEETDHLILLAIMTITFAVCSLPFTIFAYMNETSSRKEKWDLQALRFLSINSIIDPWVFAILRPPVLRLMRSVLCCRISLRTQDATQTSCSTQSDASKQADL
Chain of human EP1 (P34995 whole entry): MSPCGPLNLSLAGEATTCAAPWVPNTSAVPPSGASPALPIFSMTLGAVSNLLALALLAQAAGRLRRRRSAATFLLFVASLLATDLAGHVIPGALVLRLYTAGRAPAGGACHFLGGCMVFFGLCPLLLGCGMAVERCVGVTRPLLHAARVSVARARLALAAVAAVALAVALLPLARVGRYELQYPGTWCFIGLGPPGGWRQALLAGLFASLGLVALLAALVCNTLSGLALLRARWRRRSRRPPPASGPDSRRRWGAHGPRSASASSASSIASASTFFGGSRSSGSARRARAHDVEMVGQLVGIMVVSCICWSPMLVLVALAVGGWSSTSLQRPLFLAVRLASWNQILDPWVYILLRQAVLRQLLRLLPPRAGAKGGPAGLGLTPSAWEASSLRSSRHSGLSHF

As for `C[C@H](NC(=O)[C@H]1CCCCN1CCOc1ccccc1)c1ccc(C(=O)O)cc1` [Example 1, 4-[(1S)-1-[[(2R)-1-(2-phenoxyethyl)piperidine-2-carbonyl]amino]ethyl]benzoic acid hydrochloride], the Ki was over 14000 nM in experiment [1], over 17500 nM in experiment [2] and 1550 ± 1860 nM in experiment [3]. Also, the IC50 in experiment [4] turned out to be 15 nM.

What is called Ki is the dissociation constant of the complex between target and ligand, obtained from inhibition or displacement. By IC50 is commonly meant the concentration that inhibits the measured activity by half.
